According to patent US11584742B2 (MASARYKOVA UNIVERZITA, priority 2018, dated 2023):

Columns and labels:
MRE11 = target: T1, MRE11 (Homo sapiens, UniProt P49959); experiment: HTS nuclease assay (cleavage of CY5/BBQ-quenched 5' overhang DNA substrate); type: biochemical; conditions: in vitro HTS nuclease assay; 18 nM MRE11, 40 nM DNA substrate; analysis at t=4 h
T1 sequence (P49959 1-708): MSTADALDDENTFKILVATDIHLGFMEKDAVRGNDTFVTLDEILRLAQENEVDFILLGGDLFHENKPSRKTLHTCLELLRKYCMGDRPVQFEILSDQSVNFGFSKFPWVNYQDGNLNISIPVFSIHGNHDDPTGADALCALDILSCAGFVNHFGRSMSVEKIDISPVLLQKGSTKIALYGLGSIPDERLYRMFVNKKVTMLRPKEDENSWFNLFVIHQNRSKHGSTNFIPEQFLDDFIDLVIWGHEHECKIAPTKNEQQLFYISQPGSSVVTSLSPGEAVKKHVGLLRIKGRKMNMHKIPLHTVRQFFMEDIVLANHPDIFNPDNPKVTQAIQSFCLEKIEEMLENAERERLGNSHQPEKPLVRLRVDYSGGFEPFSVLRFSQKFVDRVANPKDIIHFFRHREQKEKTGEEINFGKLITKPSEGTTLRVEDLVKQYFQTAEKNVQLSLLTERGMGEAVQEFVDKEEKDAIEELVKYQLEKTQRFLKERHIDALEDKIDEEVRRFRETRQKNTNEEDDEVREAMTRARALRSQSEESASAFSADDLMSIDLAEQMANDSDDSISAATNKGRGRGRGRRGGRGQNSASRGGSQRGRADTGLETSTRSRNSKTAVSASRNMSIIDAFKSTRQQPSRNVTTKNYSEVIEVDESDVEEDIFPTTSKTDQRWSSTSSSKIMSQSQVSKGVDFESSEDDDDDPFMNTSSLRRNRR
Description: DNA Substrate Preparation
The DNA substrate is prepared by mixing the oligonucleotides listed below in a 1:1 ratio to reach a final concentration of 6 μM in a buffer containing 50 mM Tris pH 7.5, 100 mM NaCl and 8 mM MgCl2.
This substrate is a 5′ overhang, which is a preferred substrate of MRE11. […] The fluorescence increases upon substrate cleavage by MRE11, when separation of the two labels occur.
The conditions of the assay are as follows:
Total reaction volume: 5 μL
DNA substrate concentration in the reaction: 40 nM
Inhibitor concentration range tested: 7 nM-50 μM
Each plate contains a series of high and low signal control wells, where no compound is added:
High signal: MRE11+DNA substrate
Low signal: DNA substrate only
These are used during data evaluation.
Two extra assay controls:
1) To check whether unwinding of DNA by the compounds alone occurs.
The DNA substrate [CY5+BBQ(650)] is mixed with the compounds with no protein present.
The CY5 single stranded oligo is mixed with the compounds with no protein present.
The layout of the plates is created by the in-house software (CZ-Openscreen Prague) and this information is transferred to the robotic HTS station.
The reaction is started by the addition of DNA and the reaction time is counted from that moment, including a 15 min delay. Ten timepoints are measured:
The assay data analysis was performed at t=4 h. This corresponds to the time when the reaction is close to its maximum.
The data analysis was performed using the in-house software to obtain IC50 for each compound.

DR-GFP U2OS cells = experiment: HR assay (GFP fluorescence after I-SceI transfection, flow cytometry); type: cell-based; conditions: Homo sapiens, inhibitor at 25 μM, 72 hours after transfection
Description: DR-GFP U2OS cells (Methods in Molecular Biology 2012, 920, 379.) were transfected with 2.5 μg of I-SceI-expressing pCAGGS vector and treated with the inhibitors at 25 μM concentration. 72 hours after the transfection, the cells were trypsinized and resuspended in 3% BSA in PBS. GFP fluorescence detection was carried out using a BD FACSVerse flow cytometer and data analyzed with FlowJo software.

| Compound | IC50 (MRE11) | inhibition at 25 µM (DR-GFP U2OS cells) |
| --- | --- | --- |
| N#C/C(=C\c1ccc(O)c(O)c1)C(=O)Nc1nc(-c2ccccc2)c(-c2ccccc2)s1 [Preparative Example 176, (E)-2-cyano-3-(3,4-dihydroxyphenyl)-N-(4,5-diphenylthiazol-2-yl)acrylamide] | < 2000 nM | > 75% |
| N#C/C(=C\c1ccc(O)c(O)c1)C(=O)Nc1nc(-c2ccc(N3CCOCC3)cc2)cs1 [Preparative Example 178] | < 2000 nM | 50 to 75% |
| N#C/C(=C\c1ccc(O)c(O)c1)C(=O)Nc1nc(-c2cccc(C#N)c2)cs1 [Preparative Example 180, (E)-2-cyano-N-(4-(3-cyanophenyl)thiazol-2-yl)-3-(3,4-dihydroxyphenyl)acrylamide] | < 2000 nM | 50 to 75% |
| CC(C)(O)c1ccc(-c2csc(NC(=O)/C(C#N)=C/c3ccc(O)c(O)c3)n2)cc1 [Preparative Example 182, (E)-2-cyano-3-(3,4-dihydroxyphenyl)-N-(4-(4-(2-hydroxypropan-2-yl)phenyl)thiazol-2-yl)acrylamide] | < 2000 nM | 50 to 75% |
| N#C/C(=C\c1ccc(O)c(O)c1)C(=O)Nc1nc(-c2cc(F)cc(F)c2)cs1 [Preparative Example 185, (E)-2-cyano-N-(4-(3,5-difluorophenyl)thiazol-2-yl)-3-(3,4-dihydroxyphenyl)acrylamide] | < 2000 nM | 50 to 75% |
| N#C/C(=C\c1ccc(O)c(O)c1)C(=O)Nc1nc(-c2cccnn2)cs1 [Preparative Example 186] | < 2000 nM | < 50% |
| N#C/C(=C\c1ccc(O)c(O)c1)C(=O)Nc1nc(-c2ccc(F)cc2)cs1 [Preparative Example 187, (E)-2-cyano-3-(3,4-dihydroxyphenyl)-N-(4-(4-fluorophenyl)thiazol-2-yl)acrylamide] | < 2000 nM | > 75% |
| COC(=O)c1ccc(-c2csc(NC(=O)/C(C#N)=C/c3ccc(O)c(O)c3)n2)cc1 [Preparative Example 189, Methyl (E)-4-(2-(2-cyano-3-(3,4-dihydroxyphenyl)acrylamido)thiazol-4-yl)benzoate] | < 2000 nM | 50 to 75% |
| Cc1sc(NC(=O)/C(C#N)=C/c2ccc(O)c(O)c2)nc1-c1ccccc1 [Preparative Example 194, (E)-2-cyano-3-(3,4-dihydroxyphenyl)-N-(5-methyl-4-phenylthiazol-2-yl)acrylamide] | < 2000 nM | 50 to 75% |
| N#C/C(=C\c1ccc(O)c(O)c1)C(=O)Nc1nc(-c2ccccc2)c(Cl)s1 [Preparative Example 195, (E)-N-(5-chloro-4-phenylthiazol-2-yl)-2-cyano-3-(3,4-dihydroxyphenyl)acrylamide] | < 2000 nM | 50 to 75% |
| C#Cc1ccc(-c2csc(NC(=O)/C(C#N)=C/c3ccc(O)c(O)c3)n2)cc1 [Preparative Example 197, (E)-2-cyano-3-(3,4-dihydroxyphenyl)-N-(4-(4-ethynylphenyl)thiazol-2-yl)acrylamide] | < 2000 nM | > 75% |
| CC(C)(C)c1csc(NC(=O)/C(C#N)=C/c2ccc(O)c(O)c2)n1 [Preparative Example 199, (E)-N-(4-(tert-butyl)thiazol-2-yl)-2-cyano-3-(3,4-dihydroxyphenyl)acrylamide] | < 2000 nM | 50 to 75% |
| N#C/C(=C\c1cnc(O)c(O)c1)C(=O)Nc1nc(-c2ccccc2)cs1 [Preparative Example 200, (E)-2-cyano-3-(5,6-dihydroxypyridin-3-yl)-N-(4-phenylthiazol-2-yl)acrylamide] | 2000 to 10000 nM | < 50% |
| N#C/C(=C\c1ccc(O)c(Cl)c1)C(=O)Nc1nc(-c2ccccc2)cs1 [Preparative Example 201, (E)-3-(3-chloro-4-hydroxyphenyl)-2-cyano-N-(4-phenylthiazol-2-yl)acrylamide] | 2000 to 10000 nM | 50 to 75% |
| N#C/C(=C\c1ccc2cn[nH]c2c1)C(=O)Nc1nc(-c2ccccc2)cs1 [Preparative Example 205, (E)-2-cyano-3-(1H-indazol-6-yl)-N-(4-phenylthiazol-2-yl)acrylamide] | 2000 to 10000 nM | < 50% |
| N#C/C(=C\c1ccc(O)c([N+](=O)[O-])c1)C(=O)Nc1nc(-c2ccccc2)cs1 [Preparative Example 208, (E)-2-cyano-3-(4-hydroxy-3-nitrophenyl)-N-(4-phenylthiazol-2-yl)acrylamide] | 10000 to 90000 nM | 50 to 75% |

Now from value to compound, other results behind:

| IC50 (MRE11) | Compound | inhibition at 25 µM (DR-GFP U2OS cells) |
| --- | --- | --- |
| < 2000 nM | N#C/C(=C\c1ccc(O)c(O)c1)C(=O)Nc1nc(-c2ccc(C(F)(F)F)cn2)cs1 [Preparative Example 179, (E)-2-cyano-3-(3,4-dihydroxyphenyl)-N-(4-(5-(trifluoromethyl)pyridin-2-yl)thiazol-2-yl)acrylamide] | > 75% |
| < 2000 nM | CN(C)C(=O)c1ccc(-c2csc(NC(=O)/C(C#N)=C/c3ccc(O)c(O)c3)n2)cc1 [Preparative Example 181, (E)-4(2-(2-cyano-3-(3,4-dihydroxyphenyl)acrylamido)thiazol-4-yl)-N,N-dimethylbenzamide] | < 50% |
| < 2000 nM | N#C/C(=C\c1ccc(O)c(O)c1)C(=O)Nc1nc(-c2ccc(C#N)s2)cs1 [Preparative Example 183, (E)-2-cyano-N-(4-(5-cyanothiophen-2-yl)thiazol-2-yl)-3-(3,4-dihydroxyphenyl)acrylamide] | < 50% |
| < 2000 nM | N#C/C(=C\c1ccc(O)c(O)c1)C(=O)Nc1nc(-c2ccncc2)cs1 [Preparative Example 188, (E)-2-cyano-3-(3,4-dihydroxyphenyl)-N-(4-(pyridin-4-yl)thiazol-2-yl)acrylamide] | 50 to 75% |
| < 2000 nM | N#C/C(=C\c1ccc(O)c(O)c1)C(=O)Nc1nc2c(s1)CCCC2 [Preparative Example 191] | < 50% |
| < 2000 nM | N#C/C(=C\c1ccc(O)c(O)c1)C(=O)Nc1nc(-c2ccccc2)c(Br)s1 [Preparative Example 196, (E)-N-(5-bromo-4-phenylthiazol-2-yl)-2-cyano-3-(3,4-dihydroxyphenyl)acrylamide] | 50 to 75% |
| < 2000 nM | COc1ccc(-c2csc(NC(=O)/C(C#N)=C/c3ccc(O)c(O)c3)n2)cc1C1CC1 [Preparative Example 198, (E)-2-cyano-N-(4-(3-cyclopropyl-4-methoxyphenyl)thiazol-2-yl)-3-(3,4-dihydroxyphenyl)acrylamide] | > 75% |
| 2000 to 10000 nM | COc1cc(/C=C(\C#N)C(=O)Nc2nc(-c3ccccc3)cs2)cc(F)c1O [Preparative Example 203, (E)-2-cyano-3-(3-fluoro-4-hydroxy-5-methoxyphenyl)-N-(4-phenylthiazol-2-yl)acrylamide] | < 50% |
| 2000 to 10000 nM | N#C/C(=C\c1ccc(C(=O)O)cc1)C(=O)Nc1nc(-c2ccccc2)cs1 [Preparative Example 204, (E)-4-(2-cyano-3-oxo-3-((4-phenylthiazol-2-yl)amino)prop-1-en-1-yl)benzoic acid] | < 50% |
| 2000 to 10000 nM | N#C/C(=C\c1ccccc1F)C(=O)Nc1nc(-c2ccccc2)cs1 [Preparative Example 206, (E)-2-cyano-3-(2-fluorophenyl)-N-(4-phenylthiazol-2-yl)acrylamide] | < 50% |
| 2000 to 10000 nM | CC(=O)Nc1cccc(/C=C(\C#N)C(=O)Nc2nc(-c3ccccc3)cs2)c1 [Preparative Example 207, 3-(3-acetamidophenyl)-2-cyano-N-(4-phenylthiazol-2-yl)acrylamide] | 50 to 75% |
